Reference: patent US20260053811A1, “METHODS OF TREATING HYPERTENSION IN OBESE SUBJECTS” (Mineralys Therapeutics, Inc., priority 2022, published 2026)

Test system: hypertensive subjects
Assay: Adverse events (TEAEs, SAEs, AESI, study drug discontinuation, dose modification);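 further: counts of spontaneously reported adverse events in the Safety Analysis Set, subjects grouped by treatment actually received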
Type: in vivo, human
Conditions: Part 1
Description: In analyses performed on the Safety Analysis Set, subjects will be analyzed according to their actual treatment received.

CC(=O)N[C@H]1CC[C@H](NC(=O)CN2CCN(c3nncc(-c4ccc(C)cc4)n3)CC2)CC1 [Compound A HBr]
4 (13.3) n (%): Subjects with any On-treatment TEAEs leading to withdrawal from study drug (100 mg QD (N = 30))
8 (26.7) n (%): On-treatment TEAE: Hyperkalaemia (100 mg QD (N = 30)) | On-treatment TEAE: Hyperkalaemia, Mild (100 mg QD (N = 30)) | On-treatment TEAE: Investigations (100 mg QD (N = 30)) | On-treatment TEAE: Metabolism and nutrition disorders (100 mg QD (N = 30)) | On-treatment TEAE: Metabolism and nutrition disorders, Mild (100 mg QD (N = 30))
0 n (%): On-treatment TEAE: Glomerular filtration rate decreased (50 mg QD (N = 28)) | On-treatment TEAE: Hyperkalaemia, Moderate (50 mg QD (N = 28)) | On-treatment TEAE: Hyperkalaemia, Severe (50 mg QD (N = 28)) | On-treatment TEAE: Infections and infestations, Mild (50 mg QD (N = 28)) | On-treatment TEAE: Investigations, Moderate (50 mg QD (N = 28)) | On-treatment TEAE: Metabolism and nutrition disorders, Moderate (50 mg QD (N = 28)) | On-treatment TEAE: Orthostatic hypotension (50 mg QD (N = 28)) | On-treatment TEAE: Orthostatic hypotension, Mild (50 mg QD (N = 28)) | On-treatment TEAE: Psychiatric disorders (50 mg QD (N = 28)) | On-treatment TEAE: Psychiatric disorders, Moderate (50 mg QD (N = 28)) | On-treatment TEAE: Vascular disorders, Mild (50 mg QD (N = 28)) | On-treatment TEAE: any, Severe (50 mg QD (N = 28)) | Subjects with any On-treatment TEAEs leading to withdrawal from study drug (50 mg QD (N = 28)) | TEAE leading to permanent discontinuation from study drug: Activated partial thromboplastin time prolonged (50 mg QD (N = 28)) | TEAE leading to permanent discontinuation from study drug: Cardiac disorders (50 mg QD (N = 28)) | TEAE leading to permanent discontinuation from study drug: Coronary artery disease (50 mg QD (N = 28)) | TEAE leading to permanent discontinuation from study drug: Dizziness (50 mg QD (N = 28)) | TEAE leading to permanent discontinuation from study drug: Hyperkalaemia (50 mg QD (N = 28)) | TEAE leading to permanent discontinuation from study drug: Hypertension (50 mg QD (N = 28)) | TEAE leading to permanent discontinuation from study drug: Hypotension (50 mg QD (N = 28)) | TEAE leading to permanent discontinuation from study drug: Investigations (50 mg QD (N = 28)) | TEAE leading to permanent discontinuation from study drug: Metabolism and nutrition disorders (50 mg QD (N = 28)) | TEAE leading to permanent discontinuation from study drug: Nervous system disorders (50 mg QD (N = 28)) | TEAE leading to permanent discontinuation from study drug: Orthostatic hypotension (50 mg QD (N = 28)) | TEAE leading to permanent discontinuation from study drug: Vascular disorders (50 mg QD (N = 28)) | On-treatment TEAE: Blood and lymphatic system disorders (100 mg QD (N = 30)) | On-treatment TEAE: Blood and lymphatic system disorders, Mild (100 mg QD (N = 30)) | On-treatment TEAE: Cardiac disorders (100 mg QD (N = 30)) | On-treatment TEAE: Cortisol decreased (100 mg QD (N = 30)) | On-treatment TEAE: Cortisol decreased, Mild (100 mg QD (N = 30)) | On-treatment TEAE: Dizziness (100 mg QD (N = 30)) | On-treatment TEAE: General disorders and administration site conditions (100 mg QD (N = 30)) | On-treatment TEAE: General disorders and administration site conditions, Mild (100 mg QD (N = 30)) | On-treatment TEAE: Headache (100 mg QD (N = 30)) | On-treatment TEAE: Headache, Mild (100 mg QD (N = 30)) | On-treatment TEAE: Hyperkalaemia, Moderate (100 mg QD (N = 30)) | On-treatment TEAE: Hyperkalaemia, Severe (100 mg QD (N = 30)) | On-treatment TEAE: Hypertension (100 mg QD (N = 30)) | On-treatment TEAE: Hypertension, Moderate (100 mg QD (N = 30)) | On-treatment TEAE: Infections and infestations, Mild (100 mg QD (N = 30)) | On-treatment TEAE: Metabolism and nutrition disorders, Moderate (100 mg QD (N = 30)) | On-treatment TEAE: Nervous system disorders (100 mg QD (N = 30)) | On-treatment TEAE: Nervous system disorders, Mild (100 mg QD (N = 30)) | On-treatment TEAE: Orthostatic hypotension (100 mg QD (N = 30)) | On-treatment TEAE: Orthostatic hypotension, Mild (100 mg QD (N = 30)) | On-treatment TEAE: Urinary tract infection, Mild (100 mg QD (N = 30)) | On-treatment TEAE: Vascular disorders, Mild (100 mg QD (N = 30)) | On-treatment TEAE: any, Severe (100 mg QD (N = 30)) | TEAE leading to permanent discontinuation from study drug: Cardiac disorders (100 mg QD (N = 30)) | TEAE leading to permanent discontinuation from study drug: Coronary artery disease (100 mg QD (N = 30)) | TEAE leading to permanent discontinuation from study drug: Dizziness (100 mg QD (N = 30)) | TEAE leading to permanent discontinuation from study drug: Hypertension (100 mg QD (N = 30)) | TEAE leading to permanent discontinuation from study drug: Nervous system disorders (100 mg QD (N = 30))
4 (14.3) n (%): On-treatment TEAE: any, Mild (50 mg QD (N = 28))
1 (3.6) n (%): On-treatment TEAE: General disorders and administration site conditions, Mild (50 mg QD (N = 28)) | On-treatment TEAE: Headache (50 mg QD (N = 28)) | On-treatment TEAE: Headache, Mild (50 mg QD (N = 28)) | On-treatment TEAE: Investigations (50 mg QD (N = 28)) | On-treatment TEAE: Investigations, Mild (50 mg QD (N = 28)) | On-treatment TEAE: Nervous system disorders, Mild (50 mg QD (N = 28)) | On-treatment TEAE: Urinary tract infection, Mild (50 mg QD (N = 28))
6 (21.4) n (%): On-treatment TEAE: any, Moderate (50 mg QD (N = 28))
5 (16.7) n (%): On-treatment TEAE: Glomerular filtration rate decreased (100 mg QD (N = 30))
2 (7.1) n (%): On-treatment TEAE: General disorders and administration site conditions (50 mg QD (N = 28)) | On-treatment TEAE: Hypertension (50 mg QD (N = 28)) | On-treatment TEAE: Hypertension, Moderate (50 mg QD (N = 28)) | On-treatment TEAE: Infections and infestations (50 mg QD (N = 28)) | On-treatment TEAE: Infections and infestations, Moderate (50 mg QD (N = 28)) | On-treatment TEAE: Nervous system disorders (50 mg QD (N = 28)) | On-treatment TEAE: Urinary tract infection (50 mg QD (N = 28)) | On-treatment TEAE: Vascular disorders (50 mg QD (N = 28)) | On-treatment TEAE: Vascular disorders, Moderate (50 mg QD (N = 28))
3 (10.0) n (%): On-treatment TEAE: Blood creatinine increased (100 mg QD (N = 30)) | On-treatment TEAE: Blood creatinine increased, Mild (100 mg QD (N = 30))
7 (23.3) n (%): On-treatment TEAE: any, Moderate (100 mg QD (N = 30))
6 (20.0) n (%): On-treatment TEAE: Investigations, Mild (100 mg QD (N = 30))
5 (17.9) n (%): On-treatment TEAE: Metabolism and nutrition disorders (50 mg QD (N = 28)) | On-treatment TEAE: Metabolism and nutrition disorders, Mild (50 mg QD (N = 28))
9 (30.0) n (%): On-treatment TEAE: any, Mild (100 mg QD (N = 30))
1 (3.3) n (%): On-treatment TEAE: Urinary tract infection (100 mg QD (N = 30)) | On-treatment TEAE: Vascular disorders (100 mg QD (N = 30)) | On-treatment TEAE: Vascular disorders, Moderate (100 mg QD (N = 30)) | TEAE leading to permanent discontinuation from study drug: Activated partial thromboplastin time prolonged (100 mg QD (N = 30)) | TEAE leading to permanent discontinuation from study drug: Hypotension (100 mg QD (N = 30)) | TEAE leading to permanent discontinuation from study drug: Investigations (100 mg QD (N = 30))
3 (10.7) n (%): On-treatment TEAE: Hyperkalaemia (50 mg QD (N = 28)) | On-treatment TEAE: Hyperkalaemia, Mild (50 mg QD (N = 28))
2 (6.7) n (%): On-treatment TEAE: Gastrointestinal disorders (100 mg QD (N = 30)) | On-treatment TEAE: Gastrointestinal disorders, Mild (100 mg QD (N = 30)) | On-treatment TEAE: Infections and infestations (100 mg QD (N = 30)) | On-treatment TEAE: Infections and infestations, Moderate (100 mg QD (N = 30)) | On-treatment TEAE: Investigations, Moderate (100 mg QD (N = 30)) | On-treatment TEAE: Psychiatric disorders (100 mg QD (N = 30)) | On-treatment TEAE: Psychiatric disorders, Moderate (100 mg QD (N = 30)) | TEAE leading to permanent discontinuation from study drug: Hyperkalaemia (100 mg QD (N = 30)) | TEAE leading to permanent discontinuation from study drug: Metabolism and nutrition disorders (100 mg QD (N = 30))
